Several values for one entry are separate records, joined by “and”; a condition that tells them apart may be missing. Equal values may be shown once. Entries after “also recorded” stand apart in the source; their conditions may differ.
How the values were obtained:
[1] = Vital parameters and liver function tests after 2 weeks of treatment; format: in vivo, rat; details: for Bilirubin / ALAT / ASAT / Alkaline phosphatase / LW/BW ratio (X100) / Liver weight / Body weight: 2 weeks; for Bilirubin / ALAT / ASAT / Alkaline phosphatase: serum
Experimental: (§1) All experiments were carried out using accepted ethical guidelines. Male Wistar rats (Charles River, St Aubin-les-Elbeuf, France) weighing 200-250 g were used in this study. The animals had free access to food and drinking water. Fibrosis was induced by giving CCl4 (Sigma, St Quentin-Fallavier, France) mixed with olive oil (1vol: 5vol.) at 0.375 ml/kg body weight by gavage, three times a week, on Monday, Wednesday and Friday. Control animals for CCl4 received only olive oil.
(§2) Sympathetic chemical denervation was performed with OHDA (Sigma). OHDA was freshly prepared in saline containing 0.4% (w/v) ascorbic acid (Sigma). OHDA was administered intraperitoneally, twice a week on 2 consecutive days (Monday and Tuesday) at the dose of 25 mg/kg body weight. The first injection was given 4 to 6 hours before the first administration of CCl4. Control animals for OHDA received only the solvent.
(§3) Thus, 4 groups including each 6 animals could be distinguished. Group I: olive oil and saline alone; group II: olive oil and OHDA alone; group III: CCl4 with saline; group IV: CCl4 with OHDA. These animals were treated for 2 weeks. In another series of experiments, animals were similarly treated for 6 weeks. In that case, both control groups included only 3 animals.
Serum samples were also collected.

TIMP-1 mRNA [2] = assay: Liver TIMP-1 mRNA by Northern blot (TIMP-1/GAPDH ratio); format: in vivo, rat
Experimental: […] The blot was then stripped and rehybridized with a rat GAPDH (glyceraldehyde-3-phosphate dehydrogenase) probe.
[…] of total RNA extracted from rat liver was analyzed by Northern blot. RNAs were separated on a 0.8% agarose gel containing ethidium bromide in MOPS buffer. Running buffer and gel contained 0.2 M formaldehyde. The RNAs were transferred onto a positively charged nylon membrane (Amersham, Orsay, France) by downward capillary transfer in running buffer. Examination of the stained membrane under UV light was used to confirm the quality of loading and transfer. A rat TIMP-1 cDNA probe was labeled with [α^32P]dCTP by random priming using the Ready-to-go kit from Roche (Meylan, France). Hybridization was performed using the Ultrahyb solution (Ambion, Austin, Tex.). The blots were washed in stringent conditions (0.1×SSC, 0.1% SDS at 65° C.). To further confirm the loading and transfer accuracy, blots were rehybridized with a rat GAPDH cDNA probe (Fort et al., 1985). The signals were quantified with the Kodak 1 D Image Analysis Software (Eastman Kodak Company, Rochester, N.Y.). Results are presented as TIMP-1/GAPDH ratios.

[3] = system: CCl4-induced liver fibrosis; assay: CCl4-induced liver fibrosis in rats, fibrosis area by Picro Sirius red image analysis; format: in vivo, rat; details: for area of fibrosis (% of field area): control 0.63±0.06%
Experimental: as §1, §2, §3
Finally, other animals were treated with the specific α1-adrenergic receptor antagonist prazosin (Sigma), given in drinking water daily at a dose of 50 mg/l during 2 weeks. Group V animals received CCl4 alone, while group VI received CCl4 with prazosin. Both groups included 6 animals.
At the designated time points, the animals were sacrificed. Liver samples were taken from several lobes and either snap frozen in liquid nitrogen, cryopreserved in OCT compound (Sakura, Torrance, Calif.) and snap-frozen in liquid nitrogen-cooled isopentane, or fixed in buffered formalin.
This was done on formalin-fixed, paraffin-embedded sections stained with Picro Sirius red, using image analysis. All samples from a series of experiments were stained simultaneously. Quantitative data were obtained using a computerized image analysis system (Biocom 500, Les Ulis, France) including a personal computer (DESK PRO, Compaq, Houston, Tex.), a CCD video camera (Sony, Japan) and a Zeiss microscope (Jena, Germany). Sampling corresponded to 3 sections from 3 different lobes. The analysis was performed on an average of 50 fields per section using the ×4 objective. The whole surface of the sections was used for analysis with the exception of large centrolobular veins (diameter ≧150 μm) and large portal tracts. Fibrosis deposition was expressed as a percentage of stained areas on the total measured area.
Interassay variation was calculated in preliminary experiments and found to be 1.4%. When the percentage of reduction in areas of fibrosis consecutive to treatments was calculated, control values were first substracted.

type I collagen mRNA = assay: Liver type I collagen transcripts (quantitative RT-PCR, in situ hybridization); format: in vivo, rat
Experimental: In situ hybridization was performed on frozen sections according to a protocol described earlier, using [α^33P]UTP labeled riboprobes (Faouzi et al., 1999). The probe used was a 900 bp fragment of the rat α2(I) collagen cDNA, (Genovese et aL, 1984). The cDNA was subcloned into the pGEM5Z f(+) vector. Antisense and sense probes were generated by in vitro transcription. Their size was reduced to ˜250 nt by alkaline hydrolysis.
Total RNA was prepared from liver samples by the method of Chomczynski and Sacchi (1987), modified as described by Puissant and Houdebine (1990).
Type I collagen specific transcripts were quantified by a technique of quantitative RT-PCR, that has previously been described in detail (Bieche et al., 2000). Each sample was normalized on the basis of its expression of the RPLPO gene (also known as 36B4, encoding human acidic ribosomal phosphoprotein P0).

[4] = system: CCl4-induced hepatocyte necrosis; assay: Acute toxicity of CCl4: liver function tests and area of necrosis; details: for effect on the acute toxicity of CCl4 (biological tests and necrosis area): co-treatment with CCl4 vs CCl4 alone
Experimental: Routine liver function blood tests (bilirubin, alkaline phosphatase and transaminases) were performed on an automated analyzer.
Thus, groups of animals treated with 2 administrations of CCl4 with or without 2 injections of OHDA were sacrificed 24 hours after the second CCl4 treatment and evaluated for acute toxicity of CCl4 by serum tests and measurement of the area of necrosis on liver sections.
The percentage of necrosis area was determined on hematoxylin and eosin stained sections by image analysis.

[5] = system: liver norepinephrin stores; assay: Liver catecholamine (norepinephrin) content by HPLC with electrochemical detection; format: in vivo, rat; details: for Norepinephrin content in liver: 2 weeks, mean ± 1 SD; for decrease in the liver norepinephrin content: OHDA 2 weeks
Experimental: as §2, §3
Extraction was performed on liver homogenates (10% w/v, in 0.05 M ice-cold Tris-HCl buffer at pH 7.4) according to the method of Smedes et al. using […] as internal standard (Smedes et al., 1982). Extracts were analyzed by HPLC with electrochemical detection.

TIMP-1 mRNA [6] = assay: TIMP-1 mRNA expression by cultured HSC-T6 cells (Northern blot); format: cell-based, rat; details: mean ±SEM
Experimental: (§4) The inventors used an established rat HSC cell line, named HSC-T6.
TIMP-1 increases fibrosis deposition by inhibiting its degradation by matrix metalloproteinases. The inventors observed in example 1 that noradrenergic antagonism in vivo led to a drastic decrease in liver TIMP-1 mRNA expression. They have further measured the effect of norepinephrin on TIMP-1 mRNA expression by cultured HSC-T6 cells. Total RNA was purified from cells exposed for 3, 6, or 24 hours to 100 nM norepinephrin. The RNAs were analyzed by Northern blot with a probe specific for rat TIMP-1. The blots were subsequently dehybridized and rehybridized with a probe to rat glyceraldehyde 3-phosphate dehydrogenase to ensure proper loading and transfer. TIMP-1/GADPH ratios were calculated and the results are shown respective to control values without norepinephrin.
Results are expressed as TIMP-1/GAPDH ratios relative to control values (mean ±SEM)

HSC-T6 = assay: Hepatic stellate cell proliferation assay (tetrazolium dye reduction); format: cell-based, rat
Experimental: FIG. 3: Effect of norepinephrin on hepatic stellate cell (HSC) proliferation. Cells were exposed to increasing concentrations of norepinephrin for 2 days. Cell number was evaluated through the measurement of the reduction of the dye 3-(4,5-dimethylthiazol-2yl)-2,5 diphenyltetrazolium.
FIG. 4: Effect of prazosin on hepatic stellate cell proliferation induced by norepinephrin Cells were exposed to increasing concentrations of prazosin, either alone (open symbols), or in the presence of 100 nM norepinephrin (closed symbols). Cell number was evaluated through the measurement of the reduction of the dye 3-(4,5-dimethylthiazol-2yl)-2,5 diphenyltetrazolium. The marginal proliferation index was calculated as: (ODexperimental sample—ODday 0)/(ODcontrol—ODday 0), where OD is the optical density measured at the end of the experiment.
as §4
Cells were exposed to increasing concentrations of norepinephrin for 2 days. In some experiments, cells were also exposed to increasing concentrations of prazosin. Cell number was evaluated through the measurement of the reduction of the dye 3-(4,5-dimethylthiazol-2yl)-2,5 diphenyltetrazolium.

NCCc1cc(O)c(O)cc1O [OHDA, 6-hydroxydopamine]
Bilirubin ([1]; CCl4 with OHDA (group IV), CCl4 alone 3.2 ± 0.7): 5.0 ± 1.4 μM.I^−1 | ALAT ([1]; CCl4 with OHDA (group IV), CCl4 alone 130 ± 98): 97 ± 37 IU.I^−1 | ASAT ([1]; CCl4 with OHDA (group IV), CCl4 alone 173 ± 82): 137 ± 29 IU.I^−1 | Alkaline phosphatase ([1]; CCl4 with OHDA (group IV), CCl4 alone 276 ± 53): 225 ± 58 IU.I^−1 | LW/BW ratio (X100) ([1]; CCl4 with OHDA (group IV), CCl4 alone 4.6 ± 0.7): 4.1 ± 0.6 | Liver weight ([1]; CCl4 with OHDA (group IV), CCl4 alone 13.7 ± 1.7): 12.5 ± 1.0 g | Body weight ([1]; CCl4 with OHDA (group IV), CCl4 alone 298 ± 12): 293 ± 6 g | gross toxic effects of prolonged treatment ([1]; OHDA alone (group II)): No gross toxic effects | histologic aspect of the livers ([1]; OHDA alone (group II)): strictly normal | Bilirubin ([1]; OHDA alone (group II), saline 4.5 ± 1.4): 2.3 ± 0.5 μM.I^−1 | ALAT ([1]; OHDA alone (group II), saline 43 ± 4): 50 ± 6 IU.I^−1 | ASAT ([1]; OHDA alone (group II), saline 120 ± 9): 94 ± 18 IU.I^−1 | Alkaline phosphatase ([1]; OHDA alone (group II), saline 178 ± 48): 274 ± 46 IU.I^−1 | LW/BW ratio (X100) ([1]; OHDA alone (group II), saline 3.7 ± 0.2): 4.4 ± 0.2 | Liver weight ([1]; OHDA alone (group II), saline 12.9 ± 1.0): 16.0 ± 1.1 g | Body weight ([1]; OHDA alone (group II), saline 344 ± 17): 365 ± 14 g | effect on CCl4-induced increase of liver TIMP-1 mRNA (TIMP-1/GAPDH ratio) (TIMP-1 mRNA [2]; CCl4 with OHDA (group IV), 2 weeks): abrogated; also recorded: normalization of the TIMP-1/GAPDH ratio back to control values | effect on CCl4-induced increase of liver TIMP-1 mRNA (TIMP-1 mRNA [2]; CCl4 with OHDA, 6 weeks): greatly reduced | reduction in the TIMP-1/GAPDH ratio (TIMP-1 mRNA [2]; CCl4 with OHDA, 6 weeks, all animals, not statistically significant): 45% | reduction in the TIMP-1/GAPDH ratio (TIMP-1 mRNA [2]; CCl4 with OHDA, 6 weeks, one animal with very high value removed, p=0.05): 57% | area of fibrosis (% of field area) ([3]; CCl4 with OHDA (group IV), 2 weeks, CCl4 alone 2.86±0.78%): 1.54±0.29% | area of fibrosis ([3]; CCl4 with OHDA, 6 weeks, CCl4 alone 18.82±1.79%): 12.38±1.89% | area of fibrosis (% of field area) ([3]; OHDA alone (group II), 2 weeks): 0.61±0.08% | area of fibrosis ([3]; OHDA alone, 6 weeks): 0.47±0.03% | reduction in the area of fibrosis ([3]; OHDA with CCl4 vs CCl4 alone, 2 weeks, control values subtracted): 60% and 60.2% | decrease of fibrosis area ([3]; OHDA with CCl4 vs CCl4 alone, 6 weeks): 36% | type I collagen mRNA level (quantitative RT-PCR) (type I collagen mRNA; CCl4 together with OHDA, 6 weeks, CCl4 alone 477.2±91.0, control 16.0±5.9): 364.5±68.7 arbitrary units | decrease in type I collagen mRNA level (type I collagen mRNA; CCl4 with OHDA vs CCl4 only, 6 weeks): 24% | Necrosis area ([4]; CCl4 + OHDA, 96 hs, hematoxylin and eosin sections, CCl4 alone 4.6 ± 2.3): 3.3 ± 1.0% | ALAT ([4]; CCl4 + OHDA, 96 hs, CCl4 alone 269 ± 117): 221 ± 71 IU.I^−1 | Alkaline phosphatase ([4]; CCl4 + OHDA, 96 hs, CCl4 alone 314 ± 111): 240 ± 117 IU.I^−1 | ASAT ([4]; CCl4 + OHDA, 96 hs, CCl4 alone 452 ± 152): 342 ± 62 IU.I^−1 | effect on the acute toxicity of CCl4 (biological tests and necrosis area) [4]: no statistically significant difference | Norepinephrin content in liver ([5]; CCl4 + OHDA (group IV), CCl4 alone group III 29.1 ± 10.6): 3.6 ± 1.5 ng/g of wet liver tissue | decrease in the liver norepinephrin content ([5]; CCl4-treated animals): 87.6% | Norepinephrin content in liver ([5]; OHDA alone (group II), 25 mg/kg i.p. twice a week, saline group I 47.6 ± 9.9): 6.0 ± 3.2 ng/g of wet liver tissue | decrease in the liver norepinephrin content ([5]; non CCl4-treated animals): 87.4%

NC[C@H](O)c1ccc(O)c(O)c1 [norepinephrin]
TIMP-1/GAPDH ratio relative to control (TIMP-1 mRNA [6]; Norepinephrin 100 nM, 3 h): 1,30 ± 0,15 | TIMP-1/GAPDH ratio relative to control (TIMP-1 mRNA [6]; Norepinephrin 100 nM, 6 h): 1,38 ± 0,13 | TIMP-1/GAPDH ratio relative to control (TIMP-1 mRNA [6]; Norepinephrin 100 nM, 24 h): 1,15 ± 0,18 | concentration at plateau of HSC-T6 proliferation increase (HSC-T6; 2 days exposure): 100 nM | EC50 (HSC-T6; Rattus norvegicus, HSC-T6, 48 h, 2 days exposure, mean of 5 independent experiments in triplicate, read-out: Half-maximal effect on HSC-T6 proliferation): 0.025 µM

COc1cc2nc(N3CCN(C(=O)c4ccco4)CC3)nc(N)c2cc1OC [prazosin, 1-(4-amino-6,7-dimethoxy-2-quinazolinyl)-4-(2-furanylcarbonyl) piperazine]
fibrosis area (histomorphometry) ([3]; CCl4 with prazosin 50 mg/l in drinking water (group VI), 2 weeks, CCl4 alone 2.35±0.41%): 0.89±0.21% | decrease in fibrosis area ([3]; prazosin with CCl4 vs CCl4 alone, 2 weeks): 83% | type I collagen transcripts by in situ hybridization (type I collagen mRNA; CCl4 with prazosin, 2 weeks): large decrease in transcripts | effect on the acute toxicity of CCl4 (biological tests and necrosis area) [4]: did not decrease | effect on mitogenic effect of norepinephrin on HSC-T6 (HSC-T6; in the presence of 100 nM norepinephrin, 3 independent experiments in quadruplicate): abolished | effect on HSC-T6 proliferation alone (HSC-T6; without norepinephrin): no effect

TGFβ1: transforming growth factor β1, a major agonist of liver fibrogenesis
TIMP-1/GAPDH ratio relative to control (TIMP-1 mRNA [6]; TGFβ1 0,1 ng/ml, 3 h): 1,56 ± 0,20 | TIMP-1/GAPDH ratio relative to control (TIMP-1 mRNA [6]; TGFβ1 0,1 ng/ml, 6 h): 1,38 ± 0,11 | TIMP-1/GAPDH ratio relative to control (TIMP-1 mRNA [6]; TGFβ1 0,1 ng/ml, 24 h): 1,33 ± 0,09
